Source: PMC12434534, “Synthesis and Antiviral Evaluation of Unexplored Dioxolane-Derived 7‑Deazapurine Nucleoside Analogues against Epstein–Barr Virus (EBV)” (ACS Medicinal Chemistry Letters, 2025)
Read-outs that look alike come from different tables or passages of the source.

Legend:
EBV = experiment: Anti-EBV assay: reduction of EBV DNA synthesis (qPCR) in TPA-induced P3HR-1 cells; conditions: for EC50: human gammaherpesvirus 4, P3HR-1, 120 h, read-out: EC50, Antiviral Activity against EBV (in P3HR-1 Cells); for EC90: human gammaherpesvirus 4, P3HR-1, read-out: EC90, Antiviral Activity against EBV (in P3HR-1 Cells); for SI (CC50/EC50), EBV: selectivity index = CC50/EC50, P3HR-1 cells
Method: The antiviral potency of all synthesized nucleosides was evaluated by in-vitro cell-based assays. P3HR-1 cells were seeded in 24-well plates at a density of 1 × 10^6 cells/mL. EBV replication was induced by adding 25 ng/mL 12-O-tetradecanoylphorbol 13-acetate (TPA) (Sigma–Aldrich, Bornem, Belgium) to the growing cells. The next day, cells were washed and resuspended in fresh medium in the presence or absence of various concentrations of synthesized nucleosides (12–19). Ganciclovir (GCV) was used as antiviral control. On day 5 post-induction, total cellular DNA was extracted (QIAamp DNA kit; Qiagen Benelux B.V, Venlo, The Netherlands), and viral DNA was quantified by quantitative PCR (qPCR) using an ABI Prism 7500 Sequence Detection System (Applied Biosystems, Foster City, CA). Thermocycling conditions for all qPCRs were done following the manufacturer’s instructions. […] The results were obtained as a means from at least three independent experiments. The selectivity index of the compound was determined by the ratio of CC50/EC50. For both efficacy and cytotoxicity assays, the 50% reduction in efficacy (EC50) and cell viability (CC50) was determined using GraphPad software (GraphPad, San Diego, CA, USA, www.graphpad.com).
0.2, 0.04, 0 μM). TPA was removed after 24 h, and the same concentration of compounds was […]
replaced. […]
Real-time PCR detection of viral DNA: EBV DNA was extracted with a QIAGEN Dneasy Blood and Tissue Kit. The DNA volume was 30 μL. DNA concentration (ng/μL) was determined with a Nanophotometer (IMPLEN). The Real -time PCR was performed using QuantiTect Sybr Green PCR Kit. The amplicon was a 71 bp portion of the EBNA1 gene. The primers were […]
(§1) The 20 μL PCR sample contained 100 ng
DNA, 10 μL Universal PCR Master Mix, primer (0.5 uM final concentration), 1 μL BamH I-HF (Restriction Enzyme, BioLabs) and RNase -free water. The PCR program consisted of 1 cycle at 50 °C, 2 minutes of UNG pretreatment, followed by 1 cycle at 95 °C for 15 minutes. Then 40 cycles of 94 °C for 15 seconds, 55 °C for 30 seconds, and 72 °C for 30 seconds were carried out.
(§2) Evaluation of Cytotoxicity: The cytotoxic effects of test compounds for P3HR1 and TZN-GFP cells were determined by CellTiter 96 Non-Radioactive Cell Proliferation assay system (Promega) using either 2,3-Bis-(2-Methoxy-4-nitro-5-sulfophenyl)-2H-tetrazolium-5-carboxanilide, disodium salt (XTT) or 3- (4,5-dimethylthiazol-2-yl)-2,5-diphenyltetrazolium bromide (MTT) methods under the same conditions as the antiviral assay but in the absence virus. Cells were seeded at a density of 1 x 105 (P3HR-1) or 2 x 104 (TZM-GFP) cells per well in 96-well plates and […]

[1] = Cytotoxicity in P3HR-1 cells (XTT or MTT assay); type: cell-based; conditions: human
HIV-FL = experiment: microbe, parasite or virus in culture
Method: First, TZM-GFP cells were seeded in the 96-well plate (10 000/well), and after 24 h, selected compounds and HIV FL virus (MOI = 0.1) were added to the plate. […] At 48 h post-infection (hpi), GFP production due to infection was measured by Cytation 5, and a 50% reduction in efficacy (EC50) and cell viability (CC50) were determined using GraphPad software (San Diego, CA, USA, www.graphpad.com). […]
(10,000/well), and after 24 h, selected compounds and HIV FL (MOI=0.1) virus were added to the […]
plate. […] At 48 h post-infection (hpi), the GFP cells were measured by Cytation 5, and a 50% reduction in efficacy (EC50) and cell viability (CC50) was determined using GraphPad software (San Diego, California, www.graphpad.com). […]
as §2

[2] = Cytotoxicity in TZM-GFP cells (XTT or MTT assay); type: cell-based; conditions: human; concentration reducing cellular viability by 50% after 48 h, XTT or MTT assay; TZM-GFP cells
Method: (§3) plate. […] At 48 h post-infection (hpi), the
(§4) Blood and Tissue Kit. The DNA volume was 30 μL. DNA concentration (ng/μL) was determined with a Nanophotometer (IMPLEN). The Real -time PCR was performed using QuantiTect Sybr […]
(§5) Green PCR Kit. […] The primers were
as §1
(§6) (Restriction Enzyme, BioLabs) and RNase -free water. The PCR program consisted of 1 cycle at […]
(§7) allowed to incubate overnight. On the second day, different concentrations of test compounds were […]
(§8) added to respective cells. Following 4 days of incubation at 37 °C in a CO2 incubator, the MTT or […]
(§9) XTT reagent was added, and the cells were incubated for 3 hours at 37 °C. Subsequently, the […]
(§10) absorbance of the samples was measured using a microplate reader (Biotek). The cytotoxic […]
(§11) concentration (CC50) was determined based on the viability of mock-infected cells. […]

TZM-GFP cells = experiment: Cytotoxicity in TZM-GFP cells (XTT or MTT assay); type: cell-based
Method: as §3, §4, §5, §1, §6, §7, §8, §9, §10, §11

[3] = concentration reducing cellular viability by 50% after 48 h, XTT or MTT assay, P3HR-1 cells, read-out: CC50 (P3HR-1 Cells)
[4] = Human immunodeficiency virus 1, read-out: EC50, Antiviral Activity against HIV-FL (in TZM-GFP Cells)

| SMILES | antiviral activity against EBV (in words) (EBV; P3HR-1 cells) | EC50 (EBV) | EC90 (EBV) | CC50 at 48 h [1, 3] | EC50 (HIV-FL; [4]) | CC50 at 48 h [2] | potency against EBV relative to ganciclovir (times more potent) (EBV; EC50 compared with GCV, P3HR-1 cells) | SI (CC50/EC50), EBV (EBV) | CC50 at 48 h [1] | EC50 (HIV-FL; read-out: EC50, Antiviral Activity against HIV-FL (in TZM-GFP Cells), 48 hpi, MOI = 0.1, TZM-GFP cells, mean of at least three experiments) | SI (CC50/EC50), HIV-FL (HIV-FL; selectivity index = CC50/EC50, TZM-GFP cells) | CC50 (TZM-GFP cells) |
| --- | --- | --- | --- | --- | --- | --- | --- | --- | --- | --- | --- | --- |
| Nc1ncnc2c1ccn2[C@H]1CO[C@@H](CO)O1 [Compound 12] | inactive | > 25 µM | > 25 µM | 91.3 µM | 5.85 ± 1.01 µM | > 100 µM | – | – | – | – | – | – |
| Nc1ncnc2c1c(F)cn2[C@H]1CO[C@@H](CO)O1 [Compound 13] | – | 1.2 ± 1.8 µM | 2.28 ± 1.29 µM | 71.3 ± 25.6 µM | 3.96 ± 0.39 µM | > 100 µM | – | – | – | – | – | – |
| Nc1ncnc2c1c(Cl)cn2[C@H]1CO[C@@H](CO)O1 [Compound 14] | – | 12.5 ± 0.8 µM | > 25 µM | > 100 µM | 28.7 ± 0.45 µM | 88 µM | – | – | – | – | – | – |
| Nc1ncnc2c1c(Br)cn2[C@H]1CO[C@@H](CO)O1 [Compound 15, 7-Bromo-deazapurine-D-dioxolane nucleoside] | potent anti-EBV activity | 0.17 µM | 0.54 ± 0.36 µM | 49.9 µM | 20.8 ± 0.25 µM | 41.9 µM | 14 | 294 | – | – | – | – |
| Nc1ncnc2c1c(I)cn2[C@H]1CO[C@@H](CO)O1 [Compound 16] | potent anti-EBV activity | 0.47 ± 0.2 µM | 1.5 ± 0.09 µM | 21.2 µM | 10.3 ± 0.39 µM | 11.9 µM | – | 45 | – | – | – | – |
| Nc1nc(N)c2ccn([C@H]3CO[C@@H](CO)O3)c2n1 [Compound 17] | – | 11.9 ± 0.3 µM | – | > 100 µM | – | – | – | >8 | – | – | – | – |
| Nc1nc(F)nc2c1ccn2[C@H]1CO[C@@H](CO)O1 [Compound 18] | – | 15.5 ± 3.7 µM | > 23.9 µM | 91.7 µM | – | – | – | 6 | – | – | – | – |
| CNc1nc(N)nc2c1ccn2[C@H]1CO[C@@H](CO)O1 [Compound 19] | inactive | > 25 µM | – | 13.3 µM | – | – | – | – | – | – | – | – |
| Nc1nc(O)c2ncn(COC(CO)CO)c2n1 [GCV, ganciclovir, reference compound] | – | 2.5 ± 0.22 µM | 16.2 ± 0.21 µM | – | – | – | – | >40 | > 100 µM | – | – | – |
| C=Cc1cn([C@@H]2CO[C@H](CO)O2)c(=O)[nH]c1=O [L-HDVD, reference compound] | – | 0.12 ± 0.01 µM | 0.52 ± 0.04 µM | > 100 µM | – | – | – | >833 | – | – | – | – |
| Cc1[nH]c2ccccc2c1CC(=O)N[C@@H](Cc1ccccc1)C(=O)N(C)c1ccccc1 [PF-74, reference compound] | – | – | – | – | – | – | – | – | – | 0.6 ± 0.05 µM | >166 | > 100 µM |
